Like-named read-outs stand apart in the source and are kept apart here.
What was measured:
Assay type in all cases: cell-based, human
MDA-MB-231 (breast) = test: Cell growth inhibition assay (SRB), MDA-MB-231; conditions: SRB method, 96 hours incubation, MDA-MB-231 (breast), read-out: IC50, MDA-MB-231
Protocol: (§1) OVCAR-3, MCF-7, PC3, HepG2, A549, HT-29 and MKN-45 were grown in RPMI1640 medium (Invitrogen, Carlsbad, Calif.) supplemented with 10% fetal bovine serum (‘FBS’), 1 mM sodium pyruvate, 10 mM HEPES and 100 U/ml penicillin and […] streptomycin (‘P/S’). MDA-MB-231, HCT116, UMRC2, Caki-1, PANC-1 and HEK293 cells were maintained in Dulbecco's modified Eagle's medium (‘DMEM’, Invitrogen) supplemented with 10% FBS, P/S, 10 mM HEPES and 2 mM L-glutamine. HUVEC was maintained in M199 supplemented with basic fibroblast growth factor (‘bFGF’) […] and FBS 20%. All cells were incubated at 37° C. under humidified 5% CO2.
(§2) The growth inhibition of the substituted quinoxalin-piperazine compounds against a variety of human tumor cells was evaluated. The relative importance of particular substituent groups on the compounds was also studied. The substituted piperazine derivative compounds, prepared as described above, were tested, along with DMSO as a control.
(§3) The growth inhibition assay of various compounds against human tumor cell lines was performed using the Sulforhodamine B (‘SRB’) method (Skehan et al., J. National Cancer Institute, 1990, 82, 1107-1112). […] Triplicate wells were used for each treatment. The cells were incubated with the various compounds for 96 hours at 37° C. in a humidified 5% CO2 atmosphere. After 96-hour incubation, cells were fixed with 10% trichloroacetic acid (‘TCA’), incubated for 1 hour at 4° C., and washed 3 times with tap water. Subsequently cells were stained with 0.4% sulforhodamine B in 1% acetic acid for 30 minutes, washed 4 times with 1% acetic acid, and air-dried again. After 5 minutes agitation in 10 mM Tris solution, the absorbance of each well was measured at 530 nm using Benchmark Plus Microplate reader (Bio-Rad Laboratories, Hercules, Calif.).
(§4) To translate the OD530 values into the number of live cells in each well, the OD530 values were compared to those on standard OD530-versus-cell number curves generated for each cell line. The percent survival was calculated using the formula: % Survival=live cell number[test]/live cell number[control]×100
(§5) The IC50 values were calculated by non-linear regression analysis.

UMRC2 (kidney) = test: Cell growth inhibition assay (SRB), UMRC2; conditions: SRB method, 96 hours incubation, UMRC2 (kidney), read-out: IC50, UMRC2
Protocol: as §1, §2, §3, §4, §5

PANC-1 (pancreas) = test: Cell growth inhibition assay (SRB), PANC-1; conditions: SRB method, 96 hours incubation, PANC-1 (pancreas), read-out: IC50, PANC-1
Protocol: as §1, §2, §3, §4, §5

Structure (SMILES)	IC50 (MDA-MB-231 (breast); Homo sapiens)	IC50 (UMRC2 (kidney); Homo sapiens)	IC50 (PANC-1 (pancreas); Homo sapiens)	IC50 (MDA-MB-231 (breast))	IC50 (UMRC2 (kidney))	IC50 (PANC-1 (pancreas))
COc1nc2cc(F)c(F)cc2nc1NC(=O)N1CCN(c2cc(C)cc(C)c2)CC1 [Compound 172, 1-[(6,7-Difluoro-2-methoxyquinoxalin-3-yl)aminocarbonyl]-4-(3,5-dimethylphenyl)piperazine]	700 nM	560 nM	1000 nM			
COc1cc(OC)cc(N2CCN(C(=O)Nc3nc4cc(Cl)c(Cl)cc4nc3OC)CC2)c1 [Compound 177, 1-[(6,7-Dichloro-2-methoxyquinoxalin-3-yl)aminocarbonyl]-4-(3,5-dimethoxyphenyl)piperazine]	1450 nM	580 nM	1160 nM			
COc1cc(OC)cc(N2CCN(C(=O)Nc3nc4cc(OC)c(OC)cc4nc3OC)CC2)c1 [Compound 191, 1-[(2,6,7-Trimethoxyquinoxalin-3-yl)aminocarbonyl]-4-(3,5-dimethoxyphenyl)piperazine]	690 nM	490 nM	900 nM			
COc1cc2nc(NC(=O)N3CCN(c4cc(C)cc(C)c4)CC3)c(OC)nc2cc1OC [Compound 193, 1-[(2,6,7-Trimethoxyquinoxalin-3-yl)aminocarbonyl]-4-(3,5-dimethylphenyl)piperazine]	650 nM	470 nM	690 nM			
COc1cc2nc(NC(=O)N3CCN(c4cccc(C(F)(F)F)c4)CC3)c(OC)nc2cc1OC [Compound 194, 1-[(2,6,7-Trimethoxyquinoxalin-3-yl)aminocarbonyl]-4-(3-trifluorotolyl)piperazine]				750 nM	790 nM	1400 nM
COc1cc2nc(NC(=O)N3CCN(c4cccc(Br)c4)CC3)c(OC)nc2cc1OC [Compound 196, 1-[(2,6,7-Trimethoxyquinoxalin-3-yl)aminocarbonyl]-4-(3-bromophenyl)piperazine]	720 nM	650 nM	1050 nM			
